Data reported in the supplement of paper PMC10307832.

Tests used:
Assay in all cases: relative viability (nuclei count vs DMSO), 5 days (fraction); higher = more cells survive
AGI-6780 + Bortezomib = compound: O=C(Nc1cccc(C(F)(F)F)c1)Nc1cc(S(=O)(=O)NC2CC2)ccc1-c1ccsc1 [AGI-6780] + CC(C)C[C@H](NC(=O)[C@H](Cc1ccccc1)NC(=O)c1cnccn1)B(O)O [Bortezomib] (partner 0.002 µM)
Procedure, shortened: (§1)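 Lung cancer cell lines were seeded in 1536-well plates and dosed by pin tool the next day, with either a single drug or a fixed anchor-drug dose combined with five library-drug doses (not always all listed) spaced in √10 steps. Five days later, one step fixed the cells and stained their nuclei (final 0.05% Triton X-100, 1% formaldehyde, 1 ug/ml Hoechst), and nuclei were counted on 4× images. Relative viability is the nuclei count in treated wells divided by the count in vehicle wells, and each value is the median of duplicate plates.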

AGI-6780 + Lapatinib = compound: O=C(Nc1cccc(C(F)(F)F)c1)Nc1cc(S(=O)(=O)NC2CC2)ccc1-c1ccsc1 [AGI-6780] + CS(=O)(=O)CCNCc1ccc(-c2ccc3ncnc(Nc4ccc(OCc5cccc(F)c5)c(Cl)c4)c3c2)o1 [Lapatinib] (partner 2 µM)
Procedure, shortened: as §1

AGI-6780 + AZD7762 = compound: O=C(Nc1cccc(C(F)(F)F)c1)Nc1cc(S(=O)(=O)NC2CC2)ccc1-c1ccsc1 [AGI-6780] + NC(=O)Nc1cc(-c2cccc(F)c2)sc1C(=O)N[C@H]1CCCNC1 [AZD7762] (partner 0.2 µM)
Procedure, shortened: as §1

AGI-6780 + Decitabine = compound: O=C(Nc1cccc(C(F)(F)F)c1)Nc1cc(S(=O)(=O)NC2CC2)ccc1-c1ccsc1 [AGI-6780] + Nc1ncn([C@H]2C[C@H](O)[C@@H](CO)O2)c(=O)n1 [Decitabine] (partner 2 µM)
Procedure, shortened: as §1

| Cell Line | relative viability (AGI-6780 + Bortezomib; first compound 0.08 µM) | relative viability (AGI-6780 + Bortezomib; first compound 0.253 µM) | relative viability (AGI-6780 + Bortezomib; first compound 0.8 µM) | relative viability (AGI-6780 + Bortezomib; first compound 2.53 µM) | relative viability (AGI-6780 + Bortezomib; first compound 8 µM) | relative viability (AGI-6780 + Lapatinib; first compound 0.08 µM) | relative viability (AGI-6780 + Lapatinib; first compound 0.253 µM) | relative viability (AGI-6780 + Lapatinib; first compound 0.8 µM) | relative viability (AGI-6780 + Lapatinib; first compound 2.53 µM) | relative viability (AGI-6780 + Lapatinib; first compound 8 µM) | relative viability (AGI-6780 + AZD7762; first compound 0.08 µM) | relative viability (AGI-6780 + AZD7762; first compound 0.253 µM) | relative viability (AGI-6780 + AZD7762; first compound 0.8 µM) | relative viability (AGI-6780 + AZD7762; first compound 2.53 µM) | relative viability (AGI-6780 + AZD7762; first compound 8 µM) | relative viability (AGI-6780 + Decitabine; first compound 0.08 µM) | relative viability (AGI-6780 + Decitabine; first compound 0.253 µM) | relative viability (AGI-6780 + Decitabine; first compound 0.8 µM) | relative viability (AGI-6780 + Decitabine; first compound 2.53 µM) | relative viability (AGI-6780 + Decitabine; first compound 8 µM) |
| --- | --- | --- | --- | --- | --- | --- | --- | --- | --- | --- | --- | --- | --- | --- | --- | --- | --- | --- | --- | --- |
| 201T | 1.11 | 0.981 | 1.02 | 1.1 | 1.1 | 1.03 | 1.01 | 1.02 | 1.01 | 1.02 | 0.612 | 0.577 | 0.565 | 0.535 | 0.656 | 0.88 | 0.841 | 0.861 | 0.87 | 0.878 |
| A549 | – | – | – | – | – | 0.999 | 0.968 | 1.14 | 0.927 | 1.06 | – | – | – | – | – | 0.329 | 0.211 | 0.275 | 0.292 | 0.322 |
| A-427 | 1.13 | 1.02 | 1.06 | 0.917 | 0.991 | 1.09 | 0.997 | 1.01 | 0.945 | 0.929 | – | 0.706 | 0.806 | 0.766 | 0.783 | – | 0.538 | 0.573 | 0.508 | 0.527 |
| ABC-1 | 0.295 | 0.35 | 0.335 | 0.262 | 0.378 | 1.26 | 1.2 | 1.27 | 1.16 | 1.27 | 0.774 | 0.967 | 0.891 | – | 1.08 | – | 1.42 | 0.87 | 1.05 | 0.924 |
| BEN | 0.657 | 0.813 | 0.852 | – | 0.754 | 0.569 | 0.703 | 0.91 | – | 0.637 | 0.6 | 0.737 | 0.754 | – | 0.721 | 0.662 | 0.757 | 0.722 | – | 0.836 |
| CAL-12T | – | 1.05 | 0.944 | 1.31 | 1.06 | – | 0.582 | 0.876 | 0.572 | 0.619 | 0.616 | 0.649 | 0.806 | 0.781 | 0.687 | – | – | – | – | – |
| COR-L23 | 1.05 | 0.96 | 0.814 | 0.935 | 0.851 | 0.905 | 0.919 | 0.982 | 1.31 | 0.997 | – | – | – | – | – | 0.449 | 0.455 | 0.477 | 0.399 | 0.416 |
| COR-L 105 | 0.886 | 0.896 | 0.993 | 0.766 | 0.813 | 0.358 | 0.357 | 0.437 | 0.343 | 0.324 | – | – | – | – | – | 0.602 | 0.89 | 0.649 | 0.655 | 0.713 |
| ChaGo-K-1 | 0.772 | 1.02 | 1.08 | 1.01 | 0.932 | – | – | – | – | – | 0.851 | 0.932 | 0.932 | 0.812 | 0.919 | 0.507 | 0.534 | 0.512 | 0.455 | 0.425 |
| EKVX | 1.12 | 1.07 | 1.05 | 0.697 | 0.958 | 0.234 | 0.19 | 0.217 | 0.192 | 0.216 | 0.675 | 0.728 | 0.806 | 0.681 | 0.641 | 0.347 | 0.343 | 0.363 | 0.324 | 0.432 |
| EMC-BAC-2 | 1.14 | 1.03 | 1.1 | 0.856 | 1.14 | 0.919 | 0.929 | 0.878 | 0.725 | 0.94 | – | 1.15 | 1.16 | 0.877 | 1.02 | – | 1.01 | 0.927 | 0.855 | 1.04 |
| EPLC-272H | 0.905 | 1.03 | 0.901 | 0.766 | 1.03 | 0.921 | 0.949 | 0.881 | 0.747 | 1.11 | 0.2 | 0.369 | 0.345 | 0.278 | 0.219 | 0.405 | 0.348 | 0.359 | 0.372 | 0.374 |
| H3255 | 0.572 | 0.739 | 0.836 | 0.69 | 0.865 | 0.222 | 0.275 | 0.248 | 0.204 | 0.263 | 0.834 | 0.918 | 1.05 | 1.01 | 0.875 | 0.54 | 0.612 | 0.719 | – | 0.542 |
| HARA | 1.24 | 1.09 | 0.948 | 1.19 | 1.16 | 0.872 | 0.825 | 0.613 | 0.681 | 0.707 | 0.541 | 0.611 | 0.223 | 0.367 | 0.313 | 0.481 | 0.446 | 0.513 | 0.402 | 0.61 |
| HCC-15 | 1.1 | 0.993 | 1.06 | 1.04 | 1.02 | 0.896 | 0.824 | 0.971 | 0.83 | 0.856 | 1.18 | 1.32 | 1.34 | 1.43 | 1.25 | 0.677 | 0.756 | 0.666 | 0.546 | 0.697 |
| HCC-44 | 0.927 | 0.887 | 0.884 | 0.843 | 0.928 | 0.989 | 1 | 1.03 | 0.96 | 1.04 | 0.916 | 1.11 | 1.04 | 1.07 | 1.04 | 0.926 | 0.977 | 0.997 | 0.94 | 0.968 |
| HCC-78 | 0.479 | 0.432 | 0.739 | 0.626 | 0.581 | 0.66 | 0.702 | 0.821 | 0.485 | 0.992 | 0.978 | 0.697 | 0.837 | 0.684 | 0.681 | 0.604 | 0.695 | 0.708 | 0.661 | 0.688 |
| HCC-366 | 1.1 | 1.06 | 1.03 | 1.02 | 1.11 | 1.05 | 1.08 | 1.01 | 1.1 | 1.05 | 0.232 | 0.293 | 0.34 | 0.35 | 0.193 | 0.341 | 0.304 | 0.39 | 0.308 | 0.355 |
